These results are taken from ChEMBL document CHEMBL4715697, “Synthesis and biological activity of benzamide DNA minor groove binders” (2016).

Test [1] has as its system T47D. The test can be described thus: Growth inhibition of human T47D cells incubated for 48 hrs by sulforhodamine B assay. Type of test: functional. Background: Sulforhodamine B stains cellular protein and so reports cell mass.
Test [2] has as its system HOP-92. The test can be described thus: Growth inhibition of human HOP-92 cells assessed as cell growth at 10 uM incubated for 48 hrs by sulforhodamine B assay relative to control. It is filed as functional. Conditions: read-out: Activity.
Where [3] appears, read: read-out: LC50 (the source's name).
[4] abbreviates: read-out: pLC50 (the source's name) (converted).

Structures are written as SMILES.

Consider `CC(=O)Nc1cc(CO[Si](C)(C)C(C)(C)C)cc(NC(=O)c2ccc(C(=O)Nc3cccc(NC(=O)CCCN(C)C)c3)cc2)c1`, for which the GI50 in test [1] (read-out: GI50) was above 75 µM; in test [1] (read-out: pGI50 (converted)), above 75.9 µM. The results for the CC50 in test [1] (setting [3]) and in test [1] (setting [4]) were above 75 µM and above 75.9 µM, respectively. The TGI in test [1] (read-out: TGI) is above 75 µM; in test [1] (read-out: pTGI), above 75.9 µM.

Take `CC(=O)Nc1cc(CO)cc(NC(=O)c2ccccc2)c1`: the growth at 10 µM in test [2] is 96.3%.

As for `CC(=O)Nc1cc(CCl)cc(NC(=O)c2ccc(C(=O)Nc3cccc(NC(=O)CCCN(C)C)c3)cc2)c1`, the GI50 in test [1] (read-out: GI50) and in test [1] (read-out: pGI50 (converted)) was above 100 µM throughout. In addition, the CC50 in test [1] (setting [3]) and in test [1] (setting [4]) was above 100 µM throughout. Further, the TGI in test [1] (read-out: TGI) and in test [1] (read-out: pTGI) was above 100 µM throughout.
